Assay results reported in paper PMC11767451, “Novel Approaches to Monitor Pharmacokinetics and Metabolism of Gemcitabine-Ibandronate Conjugate in Mice and Dogs” (Molecules, 2025).
Read-outs that look alike come from different tables or passages of the source.

Columns and labels:
[1] = Proof-of-concept dog PK study, plasma levels of GEM-IB and metabolites by HPLC-MS/MS; format: in vivo, beagle dogs; conditions: for half-life: dog, plasma, 5 mg/kg; for Cmax: analyte = parent or metabolite; for AUC: over the observation period
Experimental: Assay A (GEM-IB and IB): The extraction of calibration standards, quality control samples, and PK study samples was identical. Plasma, quality control stocks, and calibrator stocks were removed from the storage freezer and kept at room temperature until fully thawed. Aliquots of 100 μL of standards/quality control or blank sample were transferred into a 1.5 mL low-binding polypropylene vial with a conical bottom and snap-on lid. An amount of 10 µL of the of the internal standard solution (15 and 10 µg/mL of IB-D3 and ATP-IS, respectively) was added and mixed. For protein precipitation, 50 μL of methanol was added and then samples were vortexed for 10 min. This was followed by centrifugation at 25,000× g for ten minutes at 4 °C (Thermo Scientific MR 23i Centrifuge, Thermo Scientific, Waltham, MA, USA). To remove remaining protein, the supernatant was transferred to 10,000 molecular weight cut off (MWCO) centrifugal filters (800 µL volume, PES 10,000 with 2.0 mL receiver tubes, Analytical Sales and Services, Flanders, NJ, USA) and centrifuged again at 25,000× g for ten minutes at 4 °C. The filtrate was transferred into HPLC vials and placed into the HPLC autosampler maintained at 4 °C.
Assay B (GEMMP, GEM dFdUMP and dFdU): The extraction of calibration standards and quality control samples was identical to that of study samples. An amount of 200 µL of plasma sample was added to a 1.5 mL snap-top Eppendorf tube with 100 µL of protein precipitation solution. The samples were then vortexed for five minutes followed by centrifugation at 25,000× g for ten minutes at 4 °C. Hereafter, supernatants were transferred to 10K Amicon centrifugal filters (Merck-Millipore, Burlington, MA, USA) and centrifuged at the same settings for 60 min. The filtrates were then transferred into HPLC vials for analysis.
Assay A (GEM-IB and IB): Quantification of the analytes was carried out using high-performance liquid chromatography–tandem mass spectrometry (HPLC-MS/MS). Chromatography was performed using an Agilent 1260 Infinity II bio-inert HPLC system (Agilent Technologies, Santa Clara, CA, USA) on a Hypercarb Porous Graphitic Carbon HPLC column (3 µm, 2.1 × 50 mm, Thermo Scientific, Waltham, MA, USA). The HPLC system consisted of an Agilent 1260 Infinity II bio-inert quaternary pump, an Agilent 1260 Infinity II bio-inert column oven, and an Agilent 1260 Infinity II bio-inert autosampler (Agilent Technologies, Santa Clara, CA, USA). An amount of 10 µL of the sample extracts was injected. The column was maintained at 22 °C. HPLC-MS-grade water supplemented with 10 mM hexafluoroisopropanol (HFIP) and 0.05% (v/v) diethyl amine (DEA) at pH 9.4 was used for the aqueous mobile phase (Buffer A) and HPLC-grade acetonitrile was used for the organic mobile phase (Buffer B). The flow rate was set to 400 µL/min throughout the assay. The initial settings were 98% Buffer A and 2% organic Buffer B for the first two minutes. During the following 0.7 min, the organic Buffer B was increased to 30%. At minute 3.5, the gradient reached 98% Buffer B, which was kept for 0.5 min, and at minute 4.2 the column was re-equilibrated to starting conditions for 2.8 min until the next injection. The HPLC system was connected to a Sciex a 5500+ triple quadrupole mass spectrometer (SCIEX, Concord, ON, Canada) via a turbo electrospray ionization source (SCIEX) operated in the negative electrospray ionization (ESI) mode. Data were acquired in negative multiple reaction monitoring (MRM) mode and all compounds were detected as [M–H ]^−. The ion transitions used during the multiple reaction monitoring mode were m/z = 318→236, 321→239, 643→342, and 521→79 for IB, IB-D3, GEM-IB, and adenosine-^13C10,^15N5 5′-triphosphate (^13C10-^15N5-ATP), respectively. The dwell time for analysis was set to 50 ms. The curtain gas was kept at 20 psi and the ion source gas at 55 psi. The ion spray voltage was −4500 volts, and the temperature of the ion source was set to 400 °C. […]

[2] = Stability in mouse plasma (accelerated, freeze-thaw, frozen PK samples); format: in vitro ADME; conditions: for %-ACC, frozen PK sample stability: mouse plasma PK samples re-extracted after 1.5 years at <−70 °C; for %-ACC (% accuracy vs nominal): 3 freeze-thaw cycles (<−70 °C / bench)
Experimental: For stability testing, QC samples were prepared by spiking plasma with QC stock solutions. These stability samples were stored for the predetermined time periods before extraction (accelerated stability and freeze–thaw stability) or after extraction (autosampler stability) and were run with freshly prepared calibrator standards. For accelerated stability, samples were stored at 4 °C and at room temperature for 4 h and 24 h prior to sample extraction. […] Assay A compounds (GEM-IB and IB) were also tested at 1 h and 2 h exposed to 4 °C and at room temperature to evaluate for which duration GEM-IB is stable.
Freeze–thaw cycle stability was assessed by storing the stability samples overnight in the freezer (<−70 °C) and thawing them the next day on the bench. Once thawed, samples were placed back into the freezer. This was carried out for three freeze–thaw cycles for all compounds.
To assess the stability of study samples, PK samples were re-extracted after storage at <−70 °C for 1.5 years (see Supplementary Table S4).
Method development and validation was conducted following applicable FDA guidelines for bioanalytical assays, as considered fit for purpose. Specificity. Endogenous interferences were excluded by analysis of blank plasma from 6 different individual lots of plasma. The lower limit of quantification (LLOQ) was determined as the lowest concentration consistently achieving an accuracy better than ±20% of the nominal concentration, with imprecision ≤20%. Predefined acceptance criteria. The performance of the assay was considered acceptable if intra- and inter-day imprecision (coefficient of variance, %CV) at each concentration was ≤15%, except at the LLOQ (≤20%). Intra- and inter-day accuracy had to be ±15% of the nominal value, except at the LLOQ (±20%). Calibration curves had to have a correlation coefficient (r) of 0.99 or better. Analytical recovery and imprecision. Intra- and inter-day analytical accuracy and imprecision were tested at least at four concentration levels depending on the LLOQ for each compound. Intra-day imprecision and accuracy were determined with n = 6 per QC level. Inter-day imprecision and accuracy were measured over 3 days, with six replicates for each QC concentration (n = 18). Extraction efficiency and matrix effect. Extraction efficiency for GEM-IB and metabolites was established by comparing the signals of the analytes after the extraction of QCs (n = 6/concentrations), with the signals of the extracted blank matrix spiked with the respective concentrations of analytes after the extraction procedure. The matrix effect was determined by comparing the analyte LC-MS/MS signal after spiking of the analyte into the extracted blank matrix (matrix from 6 different individual lots, analyte concentrations as for the QC samples) with the HPLC-MS/MS signal of the same amount of analyte in neat solution [25]. Carry-over. Carry-over was assessed by injecting blank buffer samples after analysis of the highest calibrators. Carry-over was considered insignificant if there was no signal at the relevant retention times exceeding 20% of the analyte signals at the LLOQ. Stability. QC samples were freshly prepared. One set was extracted and was analyzed immediately to determine baseline signals.

[3] = after GEM-IB 5 mg/kg 30 min i.v. infusion
[4] = beagle, iv, after GEM-IB 5 mg/kg 30 min i.v. infusion, read-out: T1/2 (converted)
[5] = beagle, iv, after GEM-IB 5 mg/kg 30 min i.v. infusion
[6] = beagle, iv, after the end of the 30 min i.v. infusion of GEM-IB 5 mg/kg, read-out: half-life
[7] = mouse plasma, 2 hours 4°C / on ice (IB and GEM-IB, footnote)
[8] = mouse plasma, 2 hours RT (IB and GEM-IB, footnote)

Row | SMILES | Rate Constant [1, 3] [h⁻¹] | half-life [1, 4] [min] | Tmax [1, 5] [min] | Cmax [1, 5] [ng/mL] | AUC [1, 5] [ng·h/mL] | %-ACC, frozen PK sample stability [2] | %-ACC (% accuracy vs nominal) ([2]; mouse plasma) [%] | %-ACC (percent mean accuracy vs nominal) ([2]; mouse plasma, 4 hours 4°C) [%] | %-ACC (percent mean accuracy vs nominal) ([2]; mouse plasma, 4 hours RT) [%] | %-ACC (percent mean accuracy vs nominal) ([2]; mouse plasma, 24 hours 4°C) [%] | %-ACC (percent mean accuracy vs nominal) ([2]; mouse plasma, 24 hours RT) [%] | half-life [1, 6] [min] | %-ACC (percent mean accuracy vs nominal) [2, 7] [%] | %-ACC (percent mean accuracy vs nominal) [2, 8] [%] | also measured
1 | Nc1ccn([C@@H]2O[C@H](CO)[C@@H](O)C2(F)F)c(=O)n1 [GEM, gemcitabine] | 0.5 | 90.7 | 30 | 684 | 1620 | 94.2% ± 11.8 | 103.4 | 94.5 | 89.3 | 87.9 | 91.0 |  |  |  | 
2 | O=c1ccn([C@@H]2O[C@H](CO)[C@@H](O)C2(F)F)c(=O)[nH]1 [dFdU, 2′,2′-difluoro-2′-deoxyuridine] | 0.1 | 591 | 270 | 330 | 6570 | failed the criteria | 109.5 | 84.5 | 83.8 | 87.0 | 85.2 |  |  |  | 
3 | O=c1ccn([C@@H]2O[C@H](COP(=O)(O)O)[C@@H](O)C2(F)F)c(=O)[nH]1 [dFdUMP, 2′,2′-difluoro-2′-deoxyuridine-5′-phosphate] | 7.0 | 5.94 | 30 | 23 | 11 | failed the criteria | 87.7 | 83.0 | 80.5 | 81.9 | 81.5 |  |  |  | 
4 | CCCCCN(C)CCC(O)(P(=O)(O)O)P(=O)(O)O [IB, ibandronate] | 0.7 | 55.9 | 30 | 4740 | 5720 |  | 94.5 |  |  | 99.7 | 101.7 | 55 | 97.0 | 106.4 | accelerated stability, result in words ([2]; mouse plasma, up to 24 h at 4 °C / on ice and room temperature): stable; freeze–thaw stability, result in words ([2]; one and two freeze–thaw cycles, matrix not stated, presumably mouse plasma): stable
5 | Nc1ccn([C@@H]2O[C@H](COP(=O)(O)O)[C@@H](O)C2(F)F)c(=O)n1 [GEMMP, gemcitabine-5′-phosphate] |  |  | 30 | 224 | 83 | failed the criteria | 92.4 | 91.9 | 87.9 | 91.4 | 88.1 |  |  |  | plasma values after the infusion period [1, 3]: below the LLOQ
6 | CCCCCN(C)CCC(O)(P(=O)(O)O)P(=O)(O)OP(=O)(O)OC[C@H]1O[C@@H](n2ccc(N)nc2=O)C(F)(F)[C@@H]1O (some centres unmarked) [GEM-IB] | 50.6 | 0.84 | 30 | 795 | 295 |  | 16.9 |  |  | 2.9 | 0.0 | < 1 | 64.2 | 31.0 | clearance [1, 5]: 284 mL/min/kg; Vd ([1]; beagle, iv, after GEM-IB 5 mg/kg 30 min i.v. infusion, read-out: Vdss): 1.93 L/kg; percent of the nominal concentration ([2]; mouse plasma, 1 h on ice): 89.2% ± 7.0; time stable on ice ([2]; mouse plasma, on ice): up to 1 h
